Measurements reported in the supplement of paper PMC10307832.

Experiments:
Assay in all cases: relative viability (nuclei count vs DMSO), 5 days (fraction); higher = more cells survive
[1] = compound: CC1=NN=C(O1)C2=NN=C(C=C2)N3CCC(CC3)OC4=C(C=CC(=C4)F)Cl + NC(=O)Nc1cc(-c2cccc(F)c2)sc1C(=O)N[C@H]1CCCNC1 [AZD7762] (partner 0.2 µM)
Procedure, shortened: (§1)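 After 5 days of treatment, lung cancer cells in 1536-well plates were fixed and stained in a single step (final 0.05% Triton X-100, 1% formaldehyde, 1 ug/ml Hoechst) and their nuclei counted on 4× images. Treatment had been applied by pin tool the day after seeding as one drug alone or as a fixed anchor-drug dose with five library-drug doses (not always all listed) in √10 steps. Relative viability is the nuclei count of treated wells divided by that of vehicle wells, and values are medians of duplicate plates.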

Tosedostat + Foretinib = compound: CC(C)C[C@@H](C(=O)N[C@H](C(=O)OC1CCCC1)c1ccccc1)[C@H](O)C(=O)NO [Tosedostat] + COc1cc2c(Oc3ccc(NC(=O)C4(C(=O)Nc5ccc(F)cc5)CC4)cc3F)ccnc2cc1OCCCN1CCOCC1 [Foretinib] (partner 0.25 µM)
Procedure, shortened: as §1

[2] = compound: CC1=NN=C(O1)C2=NN=C(C=C2)N3CCC(CC3)OC4=C(C=CC(=C4)F)Cl + COc1cccc2cc(-c3nc([C@H]4CC[C@H](C(=O)O)CC4)n4ncnc(N)c34)[nH]c12 [OSI-027] (partner 0.5 µM)
Procedure, shortened: as §1

Tosedostat + Lapatinib = compound: CC(C)C[C@@H](C(=O)N[C@H](C(=O)OC1CCCC1)c1ccccc1)[C@H](O)C(=O)NO [Tosedostat] + CS(=O)(=O)CCNCc1ccc(-c2ccc3ncnc(Nc4ccc(OCc5cccc(F)c5)c(Cl)c4)c3c2)o1 [Lapatinib] (partner 2 µM)
Procedure, shortened: as §1

Cell Line	relative viability ([1]; first compound 0.253 µM)	relative viability ([1]; first compound 0.8 µM)	relative viability ([1]; first compound 2.53 µM)	relative viability ([1]; first compound 8 µM)	relative viability (Tosedostat + Foretinib; first compound 0.02 µM)	relative viability (Tosedostat + Foretinib; first compound 0.06325 µM)	relative viability (Tosedostat + Foretinib; first compound 0.2 µM)	relative viability (Tosedostat + Foretinib; first compound 0.6325 µM)	relative viability (Tosedostat + Foretinib; first compound 2 µM)	relative viability ([2]; first compound 0.253 µM)	relative viability ([2]; first compound 0.8 µM)	relative viability ([2]; first compound 2.53 µM)	relative viability ([2]; first compound 8 µM)	relative viability (Tosedostat + Lapatinib; first compound 0.02 µM)	relative viability (Tosedostat + Lapatinib; first compound 0.06325 µM)	relative viability (Tosedostat + Lapatinib; first compound 0.2 µM)	relative viability (Tosedostat + Lapatinib; first compound 0.6325 µM)	relative viability (Tosedostat + Lapatinib; first compound 2 µM)
NCI-H596	0.975	0.853	0.97	0.946	0.905	0.872	0.938	0.764	0.839	0.565	0.572	0.734	0.698	1.21	1.16	1	1.22	1.07
NCI-H647	0.462	0.294	0.472	0.248	1.36	1.14	1.18	1.04	1.17	0.516	0.423	0.453	0.207	1.17	1.11	1.07	0.926	0.969
NCI-H650	0.943	0.642	0.985	0.882	1.05	1.04	0.92	0.941	0.765	0.553	0.447	0.528	0.437	1.19	0.996	0.608	0.775	0.489
NCI-H727	0.823	0.597	0.623	0.555	0.908	0.622		0.602	0.487	0.704	0.494	0.685	0.741	1.11	0.589	0.631	0.657	0.575
NCI-H838	0.74	0.778	0.918	0.787	1.1	1.02	1.04	1.08	1.13	0.37	0.394	0.396	0.331	0.93	0.914	0.961	0.904	1.24
NCI-H1355	0.571	0.385	0.773	0.692	0.93	0.991	0.99	0.92	0.883	0.343	0.38	0.386	0.331	1.02	1.03	0.88	0.913	0.915
NCI-H1395	0.377	0.378	0.392	0.404	0.917	1.05	0.952	0.918	0.871	0.641	0.588	0.639	0.595	1.1	0.944	0.877	0.862	0.674
NCI-H1437	0.726	0.851	0.93	0.848	1.3	1.32	1.34	1.25	1.25	0.697	0.742	0.795	0.614	0.749	0.809	0.744	0.727	0.661
NCI-H1651	0.423	0.412	0.448	0.386	0.864	0.736	0.764	0.906	0.688	0.73	0.597	0.717	0.697	0.883	0.81	0.77	0.816	0.697
